Experiments:
CYP3A4 = CYP3A4 (Homo sapiens, UniProt P08684)
CYP3A7 = CYP3A7 (Homo sapiens, UniProt P24462)
GST M1-1 = target: T1, GST M1-1 (Homo sapiens, UniProt P09488, K173N); assay: Bioluminogenic GST assay with acetyl luciferin; format: biochemical; settings: versus GST A1-1; result in words
T1 construct: purchased Sigma

equine GST = assay: Two-step bioluminogenic GST assay with luciferin derivative; format: biochemical; settings: versus GST M1-1 and GST A1-1; result in words
Description: The derivative was tested in a two step format. […] At different times after the reaction was initiated, a portion was removed and mixed with a luciferase reaction mixture. Reactions in which light production increased over time indicate that GST#3 is a substrate for the GST in that reaction.
Equine GST Solution: 25 mg of equine GST (Part G 6511, Sigma Chemical Company, St. Louis, MO) was dissolved in 5 ml of 10 mM BisTris buffer, pH 6.6. […] […] Glutathione (reduced) (Part G 4251, Sigma Chemical Company) was dissolved in water to create a 100 mM solution. GST #3 was dissolved in acetonitrile to produce a 12 mM solution.

[1] = Non-enzymatic transformation of luciferin derivative by glutathione (no GST), luciferase read-out; format: biochemical; settings: time of mixing/20/40 minutes
Description: Buffer stock solutions (1 M) of BisTris at pH 6.5, HEPES, pH 7.0, 7.5 and 8.0 and Tricine pH 8.5 were prepared by dissolving solid reagent obtained from Sigma Chemical Corporation and adjusting the pH to the desired value.
The stock of S. japonica GST used in Example 1A was diluted to 1 mg/ml with 10 mM BisTris pH 6.5.
The reactions were initiated by addition of GST #3 and mixing. […]

QuantiLum Luciferase = target: T2, QuantiLum Luciferase (Photinus pyralis, UniProt P08659); assay: Scaffolds: light emission of luciferin derivatives with QuantiLum luciferase alone, + Co A, + DTT, + Co A and DTT; format: biochemical, firefly
T2 construct: purchased Promega Corporation E170

luciferase = assay: No-enzyme control: activity of luciferase towards the luciferin derivative (background luminescence); settings: wild type microsomes instead of FMO 3
Description: The reactions (Table 1) were assembled by first adding the water and 1 M BisTris solutions in individual 0.5 ml microfuge tubes, then adding the other components except for the GST #3 solution. Finally, the GST #3 (Figure 12) solution was added to the reactions, the resulting solution was mixed, and the time of addition noted. […]
The GST #3 addition was performed last and the solutions were mixed immediately after addition of GST #3. […] After mixing, the light produced by the solution was measured using a Turner TD 20/20 luminometer.
After assembly, the enzyme stock solutions were diluted 1:10 into 10 mM HEPES, pH 7.5 and the following additions were made to the reactions.
A 5 µl sample of the luciferol DMF solution was added to each of the reactions above and a timer was started upon the addition of the first luciferol/DMF solution to reaction 1. All reactions were kept at room temperature.
After incubating 5 minutes at room temperature, the light produced by these samples was measured using a Turner TD 20 luminometer.
To initiate the conversions, 5 µl of luciferol solution was added to reactions […], 6-9, and 11-15, and 10 µl of luciferol was added to reactions 5 and 10 and the tubes mixed after that addition. Immediately after luciferol addition to reaction 1, a timer was started and the time of luciferol addition to the other tubes noted. After mixing, reaction 11-15 were placed at 37°C.
After incubating 10 minutes at room temperature, the light produced by these samples was read using a Turner TD 20 luminometer (Table 18).
To initiate Step 1, 45 µl of enzyme and buffer were added to each well.
Solution A and Solution B are components of the NADPH Regeneration System (V9510, Promega Corp., Madison WI). […] Solution B contains 40 units/ml glucose-6-phosphate dehydrogenase in 5 mM citrate pH 5.5.

[2] = target: T3, human recombinant monoamine oxidase B (MAO B) (Homo sapiens, UniProt P27338); assay: Two-step luminescent MAO assay with luciferin derivative; format: biochemical; settings: fit of Tables 23-24 (TableCurve)
T3 construct: purchased Sigma Chemical Company M-7441; host or cells: baculovirus infected insect cells (microsomes)
T3 sequence (P27338 1-520): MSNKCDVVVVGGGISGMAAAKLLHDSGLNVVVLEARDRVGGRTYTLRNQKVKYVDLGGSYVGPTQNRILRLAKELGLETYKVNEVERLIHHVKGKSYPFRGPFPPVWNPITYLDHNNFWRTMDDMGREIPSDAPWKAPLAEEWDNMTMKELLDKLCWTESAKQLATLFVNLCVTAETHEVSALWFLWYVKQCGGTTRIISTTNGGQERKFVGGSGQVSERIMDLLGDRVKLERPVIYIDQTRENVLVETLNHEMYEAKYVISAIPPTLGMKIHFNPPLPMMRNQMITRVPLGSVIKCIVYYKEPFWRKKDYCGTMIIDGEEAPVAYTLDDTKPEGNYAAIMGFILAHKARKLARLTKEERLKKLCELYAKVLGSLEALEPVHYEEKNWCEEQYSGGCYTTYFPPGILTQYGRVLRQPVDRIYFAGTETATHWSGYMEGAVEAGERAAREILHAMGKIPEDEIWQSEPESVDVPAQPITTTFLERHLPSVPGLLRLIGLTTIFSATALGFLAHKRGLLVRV

[3] = tested on: human recombinant flavin-containing monooxygenase 3 (FMO 3); assay: Two-step luminescent FMO assay with luciferin derivative; format: biochemical
[4] = target: T4, human recombinant monoamine oxidase A (MAO A) (Homo sapiens, UniProt P21397); assay: Two-step luminescent MAO assay with luciferin derivative
T4 sequence (P21397 1-527): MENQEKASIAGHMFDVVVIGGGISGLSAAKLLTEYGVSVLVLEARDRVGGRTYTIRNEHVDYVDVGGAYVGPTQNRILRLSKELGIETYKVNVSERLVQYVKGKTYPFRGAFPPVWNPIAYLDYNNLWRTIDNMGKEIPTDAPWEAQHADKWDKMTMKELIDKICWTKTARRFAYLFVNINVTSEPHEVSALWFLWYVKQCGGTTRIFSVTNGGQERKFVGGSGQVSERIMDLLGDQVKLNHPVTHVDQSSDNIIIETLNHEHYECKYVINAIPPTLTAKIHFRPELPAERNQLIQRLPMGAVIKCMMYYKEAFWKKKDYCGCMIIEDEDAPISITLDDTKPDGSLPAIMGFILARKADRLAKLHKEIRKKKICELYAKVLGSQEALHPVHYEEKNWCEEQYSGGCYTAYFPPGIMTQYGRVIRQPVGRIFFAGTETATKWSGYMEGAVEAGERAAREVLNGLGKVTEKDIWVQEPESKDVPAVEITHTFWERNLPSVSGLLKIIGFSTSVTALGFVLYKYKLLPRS

T2 sequence (P08659 whole entry): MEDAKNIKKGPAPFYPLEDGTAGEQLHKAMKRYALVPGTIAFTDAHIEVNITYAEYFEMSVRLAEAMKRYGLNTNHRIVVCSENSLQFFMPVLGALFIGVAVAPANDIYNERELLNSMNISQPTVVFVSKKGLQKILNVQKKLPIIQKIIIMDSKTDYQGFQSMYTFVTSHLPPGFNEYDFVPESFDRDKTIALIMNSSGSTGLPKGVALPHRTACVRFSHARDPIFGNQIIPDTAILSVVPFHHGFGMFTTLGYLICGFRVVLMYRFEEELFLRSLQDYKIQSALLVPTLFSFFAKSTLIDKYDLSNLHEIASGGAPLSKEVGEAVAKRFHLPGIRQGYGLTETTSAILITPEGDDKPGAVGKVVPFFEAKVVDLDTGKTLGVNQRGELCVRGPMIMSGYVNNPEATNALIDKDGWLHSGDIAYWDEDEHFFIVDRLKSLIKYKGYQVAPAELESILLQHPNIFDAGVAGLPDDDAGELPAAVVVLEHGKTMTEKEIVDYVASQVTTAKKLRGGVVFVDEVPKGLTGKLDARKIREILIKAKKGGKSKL
T1 sequence (P09488 whole entry K173N): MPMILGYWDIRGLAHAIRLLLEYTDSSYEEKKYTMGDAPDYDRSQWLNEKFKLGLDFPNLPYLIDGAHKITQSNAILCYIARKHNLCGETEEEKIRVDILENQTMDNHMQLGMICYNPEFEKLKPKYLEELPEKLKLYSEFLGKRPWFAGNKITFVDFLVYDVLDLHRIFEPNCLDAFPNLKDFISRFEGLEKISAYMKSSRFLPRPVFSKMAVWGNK
CYP3A7, sequence (P24462 whole entry): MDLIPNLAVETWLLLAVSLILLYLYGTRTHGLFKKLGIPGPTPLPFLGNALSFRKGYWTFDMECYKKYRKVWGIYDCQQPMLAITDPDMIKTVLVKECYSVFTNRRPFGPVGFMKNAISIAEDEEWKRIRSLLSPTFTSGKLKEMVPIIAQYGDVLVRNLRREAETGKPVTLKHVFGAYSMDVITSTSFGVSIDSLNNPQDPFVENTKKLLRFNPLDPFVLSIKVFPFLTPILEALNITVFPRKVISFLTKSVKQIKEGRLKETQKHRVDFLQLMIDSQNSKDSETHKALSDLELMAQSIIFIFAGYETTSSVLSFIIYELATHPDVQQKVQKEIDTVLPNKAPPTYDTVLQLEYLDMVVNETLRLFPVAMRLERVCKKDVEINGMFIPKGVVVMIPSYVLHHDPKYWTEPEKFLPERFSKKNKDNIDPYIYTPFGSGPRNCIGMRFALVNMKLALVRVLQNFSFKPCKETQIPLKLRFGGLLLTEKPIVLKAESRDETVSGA
CYP3A4, sequence (P08684 2-503 limits assumed): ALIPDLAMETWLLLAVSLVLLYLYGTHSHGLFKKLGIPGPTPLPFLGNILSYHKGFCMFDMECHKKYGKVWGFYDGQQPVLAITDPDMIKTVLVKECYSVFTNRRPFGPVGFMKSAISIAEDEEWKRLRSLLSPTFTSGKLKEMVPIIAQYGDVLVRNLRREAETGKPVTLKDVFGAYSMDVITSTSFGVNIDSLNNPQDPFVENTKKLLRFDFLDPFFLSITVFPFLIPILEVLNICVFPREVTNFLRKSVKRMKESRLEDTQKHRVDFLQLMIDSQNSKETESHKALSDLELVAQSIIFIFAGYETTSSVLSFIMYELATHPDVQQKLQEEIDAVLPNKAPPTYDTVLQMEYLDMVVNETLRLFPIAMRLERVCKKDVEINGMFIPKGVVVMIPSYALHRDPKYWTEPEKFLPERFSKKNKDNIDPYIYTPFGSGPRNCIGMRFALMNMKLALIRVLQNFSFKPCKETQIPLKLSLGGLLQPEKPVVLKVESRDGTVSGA

## quinolylluciferin 6-benzyl ether
CYP3A4
  P450 activity / selectivity with the derivative as substrate: to a lesser degree a substrate
CYP3A7
  P450 activity / selectivity with the derivative as substrate: preferred substrate

## COC(=O)[C@H]1CSC(c2ccc3cc(Oc4ccc(C(F)(F)F)cc4[N+](=O)[O-])ccc3n2)=N1 [GST-4, Methyl 6-(2-nitro-4-trifluoromethyl-phenoxy)quinolinyl-luciferin ester]
GST M1-1
  substrate preference among GSTs in a light generating reaction: better substrate for GST M1-1

## O=C(O)[C@H]1CSC(c2ccc3cc(Oc4ccc(C(F)(F)F)cc4[N+](=O)[O-])ccc3n2)=N1 [GST #3, 6-(2-nitro-4-trifluoromethyl-phenoxy)quinolinyl-luciferin]
Equine GST
  substrate preference among GSTs in a light generating reaction: better substrate for equine GST
[1]; Table 4 reaction 2: BisTris pH 6.5, 5 µl 100 mM glutathione, no GST, 20 minutes post mixing
  Light Output: 1.287
[1]; Table 4 reaction 2: BisTris pH 6.5, 5 µl 100 mM glutathione, no GST, 40 minutes post mixing
  Light Output: 1.761
[1]; Table 4 reaction 2: BisTris pH 6.5, 5 µl 100 mM glutathione, no GST, at time of mixing
  Light Output: 1.13
[1]; Table 4 reaction 4: HEPES pH 7.0, glutathione, 20 minutes post mixing
  Light Output: 1.178
[1]; Table 4 reaction 4: HEPES pH 7.0, glutathione, 40 minutes post mixing
  Light Output: 2.2
[1]; Table 4 reaction 4: HEPES pH 7.0, glutathione, at time of mixing
  Light Output: 1.156
QuantiLum Luciferase; Derivative Conc. 1.07, Alone
  light emission values: 3232
QuantiLum Luciferase; Derivative Conc. 1.07, Co A
  light emission values: 3081
QuantiLum Luciferase; Derivative Conc. 1.07, Co A + DTT
  light emission values: 6964
QuantiLum Luciferase; Derivative Conc. 1.07, DTT
  light emission values: 5953
QuantiLum Luciferase; Derivative Conc. 3.13, Alone
  light emission values: 4913
QuantiLum Luciferase; Derivative Conc. 3.13, Co A
  light emission values: 4832
QuantiLum Luciferase; Derivative Conc. 3.13, Co A + DTT
  light emission values: 8826
QuantiLum Luciferase; Derivative Conc. 3.13, DTT
  light emission values: 9106
QuantiLum Luciferase; Derivative Conc. 6.25, Alone
  light emission values: 7682
QuantiLum Luciferase; Derivative Conc. 6.25, Co A
  light emission values: 7149
QuantiLum Luciferase; Derivative Conc. 6.25, Co A + DTT
  light emission values: 10423
QuantiLum Luciferase; Derivative Conc. 6.25, DTT
  light emission values: 11164
QuantiLum Luciferase; Derivative Conc. 12.5, Alone
  light emission values: 11752
QuantiLum Luciferase; Derivative Conc. 12.5, Co A
  light emission values: 10674
QuantiLum Luciferase; Derivative Conc. 12.5, Co A + DTT
  light emission values: 14298
QuantiLum Luciferase; Derivative Conc. 12.5, DTT
  light emission values: 16587
QuantiLum Luciferase; Derivative Conc. 25, Alone
  light emission values: 15957
QuantiLum Luciferase; Derivative Conc. 25, Co A
  light emission values: 14791
QuantiLum Luciferase; Derivative Conc. 25, Co A + DTT
  light emission values: 18145
QuantiLum Luciferase; Derivative Conc. 25, DTT
  light emission values: 21256
QuantiLum Luciferase; Derivative Conc. 50, Alone
  light emission values: 17409
QuantiLum Luciferase; Derivative Conc. 50, Co A
  light emission values: 15440
QuantiLum Luciferase; Derivative Conc. 50, Co A + DTT
  light emission values: 20009
QuantiLum Luciferase; Derivative Conc. 50, DTT
  light emission values: 22888
QuantiLum Luciferase; Derivative Conc. 100, Alone
  light emission values: 16388
QuantiLum Luciferase; Derivative Conc. 100, Co A
  light emission values: 18343
QuantiLum Luciferase; Derivative Conc. 100, Co A + DTT
  light emission values: 19129
QuantiLum Luciferase; Derivative Conc. 100, DTT
  light emission values: 21472

## CNCCCOc1ccc2nc(C3=N[C@@H](C(=O)O)CS3)ccc2c1 [MAO-7, 6-(3-methylaminopropoxy)quinolinyl-lucifexin]
luciferase; [MAO-7] 43 µM
  relative light units, control: 1043 RLUs
luciferase; [MAO-7] 86 µM
  relative light units, control: 1585 RLUs
luciferase; [MAO-7] 258 µM
  relative light units, control: 3592 RLUs
luciferase; [MAO-7] 344 µM
  relative light units, control: 4486 RLUs
luciferase; [MAO-7] 516 µM
  relative light units, control: 6137 RLUs
luciferase; [MAO-7] 688 µM
  relative light units, control: 7213 RLUs
[2]
  RLUmax: 48
[3]; [MAO-7] 43 µM
  relative light units, FMO 3: 8220 RLUs
  relative light units, net FMO 3: 7177 RLUs
[3]; [MAO-7] 86 µM
  relative light units, FMO 3: 13646 RLUs
  relative light units, net FMO 3: 12061 RLUs
[3]; [MAO-7] 258 µM
  relative light units, FMO 3: 28987 RLUs
  relative light units, net FMO 3: 25395 RLUs
[3]; [MAO-7] 344 µM
  relative light units, FMO 3: 34036 RLUs
  relative light units, net FMO 3: 29550 RLUs
[3]; [MAO-7] 516 µM
  relative light units, FMO 3: 40329 RLUs
  relative light units, net FMO 3: 34192 RLUs
[3]; [MAO-7] 688 µM
  relative light units, FMO 3: 42707 RLUs
  relative light units, net FMO 3: 35494 RLUs
[3]; fit of Table 33, CHES pH 9.5
  Km: 200 ± 20 µM
[4]; fit of Tables 23-24 (TableCurve)
  RLUmax: 750
[4]; result in words
  substrate specificity as indicated by the ratio RLUmax/Km: more specific substrate for MAO A
